pIC50: −log10 of the molar value.
How the values were obtained:
[1] = system: U2OS cells expressing Pendo-mGFP-Plk1 F559D; assay: MTS proliferation assay, U2OS Plk1 RNAi cells expressing Plk1 F559D; format: cell-based; conditions: 3 to 6 μM, 36 h
Method: Cell viability was determined using the […] CellTiter 96® AQueous One Solution Cell Proliferation Assay (MTS) kit (Promega) containing a tetrazolium compound [3-(4,5-dimethylthiazol-2-yl)-5-(3-carboxymethoxy-phenyl)-2-(4-sulfophenyl)-2H-tetrazolium, inner salt (MTS)] and an electron-coupling phenazine ethosulfate. For the MTS assays in Fig. 1B, L363 cells cultured in a 96-well plate were treated with the indicated compounds for 48 h (the final volume of 100 μL). After the compound treatment, cells were additionally treated with 20 μL of the MTS solution and incubated at 37 °C for 2 to 4 h in a humidified 5% CO2 atmosphere. The absorbance of the resulting sample was measured at 490 nm using a PerkinElmer EnSpire Multimode 96-well plate reader. For the MTS assays in Fig. 4E, U2OS cells stably expressing either Pendo-mGFP-Plk1 WT or F559D were seeded at approximately 5,000 cells/well in a 96-well plate, depleted of endogenous Plk1 by RNAi, and then treated with either control DMSO or Allopole as indicated in the schematic diagram in SI Appendix, Fig. S4E.

Plk2 PBD (PBD2) = target: T1, Plk2 PBD (PBD2) (Homo sapiens, UniProt Q9NYY3); assay: FP-based inhibition assay, PBD2; format: binding; conditions: bacterially expressed purified PBD, FITC-ligand 15 nM, PBD at EC85
T1 construct: Purification of PBD2-His (355–685) (pKM3358) and its S652F mutant (pKM7980); His (C); made in house; host or cells: bacteria (E. coli)
T1 sequence (Q9NYY3 355-685): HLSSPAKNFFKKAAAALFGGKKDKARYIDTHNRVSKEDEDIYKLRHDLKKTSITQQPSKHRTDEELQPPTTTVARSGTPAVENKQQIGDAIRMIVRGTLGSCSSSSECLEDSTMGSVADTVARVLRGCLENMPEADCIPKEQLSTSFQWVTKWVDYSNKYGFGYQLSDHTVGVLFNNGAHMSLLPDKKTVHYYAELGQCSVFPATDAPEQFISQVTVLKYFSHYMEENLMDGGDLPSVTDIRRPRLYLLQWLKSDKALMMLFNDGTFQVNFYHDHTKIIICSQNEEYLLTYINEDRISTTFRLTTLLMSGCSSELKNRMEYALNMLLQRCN
Method: (§1) FP assays were carried out essentially as described previously ([35], [36]). […] All the samples were analyzed approximately 30 min after reaction in a 384-well format using the SpectraMax Paradigm multimode microplate detection platform (Molecular Devices). Data were analyzed after carrying out at least three independent experiments using GraphPad Prism software version 8.

Plk1 PBD (PBD1) = target: T2, Plk1 PBD (PBD1) (Homo sapiens, UniProt P53350); assay: FP-based inhibition assay, PBD1; format: binding
T2 construct: constructs expressing PBD1 (residues 345–603) WT (pKM7650); His; TEV site (N); made in house; host or cells: bacteria (E. coli)
T2 sequence (P53350 345-603): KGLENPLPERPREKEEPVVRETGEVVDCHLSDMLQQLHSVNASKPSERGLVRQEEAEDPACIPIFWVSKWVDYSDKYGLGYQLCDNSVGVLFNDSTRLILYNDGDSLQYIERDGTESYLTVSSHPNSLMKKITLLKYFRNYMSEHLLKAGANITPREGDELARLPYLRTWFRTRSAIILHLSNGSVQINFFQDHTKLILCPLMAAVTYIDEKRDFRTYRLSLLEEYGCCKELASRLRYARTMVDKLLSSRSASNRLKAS
Method: as §1

PBD3 A612F mutant = target: T3, PBD3 A612F mutant (Homo sapiens, UniProt Q9H4B4, A612F); assay: FP-based inhibition assay, PBD3 A612F; format: binding; conditions: MBP-PBD3 A612F
T3 construct: MBP-PBD3-His (335–646) (pKM3359) and its A612F (pKM7981); His (C); made in house; host or cells: bacteria (E. coli)
T3 sequence (Q9H4B4 335-646 A612F): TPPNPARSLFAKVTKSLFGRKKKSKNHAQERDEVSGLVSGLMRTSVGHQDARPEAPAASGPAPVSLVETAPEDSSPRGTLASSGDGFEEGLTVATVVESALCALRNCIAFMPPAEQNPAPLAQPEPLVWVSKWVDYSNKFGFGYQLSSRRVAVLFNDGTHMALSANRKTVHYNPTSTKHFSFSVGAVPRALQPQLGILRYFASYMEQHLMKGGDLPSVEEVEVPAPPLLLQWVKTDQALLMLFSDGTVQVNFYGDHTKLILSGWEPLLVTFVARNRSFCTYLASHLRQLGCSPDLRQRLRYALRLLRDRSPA
Method: (§2) FP assays were carried out essentially as described previously ([35], [36]). FITC-conjugated ligands (15 nM) were mixed with PBDs at their EC85 concentrations. All the samples were analyzed approximately 30 min after reaction in a 384-well format using the SpectraMax Paradigm multimode microplate detection platform (Molecular Devices). Data were analyzed after carrying out at least three independent experiments using GraphPad Prism software version 8.
Fig. S3. Sequence alignment showing unique PBD2 S652 and PBD3 A612 residues and FP-based Allopole-A inhibition assays carried out with PBD2 S652F and PBD A612F mutants. (A) Human PBD1 (Uniprot ID: P53350), PBD2 (Uniprot ID: Q9NYY3), and PBD3 (15niport ID:Q9H4B4) sequences were aligned using Clustal Omega. The polo-box cap and L1 loop regions were adjusted based on the structural superposition of PBD1 (PDB ID: 3HIK), PBD2 (PDB_ID: 4RS6), and the AlphaFold model of PBD3 (https://alphafold.ebi.ac.uk). […]
with PBD2 and MBP-PBD3 are working properly under our conditions. […] The Kd values for the indicated proteins were determined after extrapolating them from the binding curves as the […]
concentration at which 50% of FITC-conjugated ligands (FITC-GPMQTSpTPKNG for PBD2 and FITC-GPLATSpTPKNG for PBD3) (5) are protein-bound. The EC85 values indicate the effective concentration of 85% of the maximal concentration calculated for each protein. […]

PBD1 F559E mutant = target: T4, PBD1 F559E mutant (Homo sapiens, UniProt P53350, F559E); assay: FP-based binding/inhibition assay, PBD1 F559E; conditions: PBD1 F559E at EC85
T4 construct: constructs expressing PBD1 (residues 345–603) WT (pKM7650), F559D (pKM7878), F559E (pKM7879); His; TEV site (N); made in house; host or cells: bacteria (E. coli)
T4 sequence (P53350 345-603 F559E): as the sequence (P53350 345-603) above, with F215E counted along it
Method: as §2
Fig. S4. Generation of F559 mutants for in vitro and cell-based assays in Fig. 4. (A) SDS-PAGE showing the proteins used for the FP assays in Fig. 4 A and B. CBB, a Coomassie Brilliant Blue– stained gel. (B) Summary of Kd and EC85 values for PBD1 WT and mutants. The Kd values for PBD1 WT and mutants were determined after extrapolating them from the binding curves as the concentration at which 50% of the FITC-Ahx-DPPLHSpTAI-NH2 are PBD1-bound. The EC85 values indicate the effective concentration of 85% of the maximal concentration calculated for each protein. The FP values were obtained 30 minutes after incubation. For the F559K and F559R mutants, we were not able to determine the EC85 values and therefore used 2 µM of these proteins for the assays in Fig. 4B. N.D., not determined. […]

## Cn1cnc([N+](=O)[O-])c1Sc1nnc2n(CC3CC3)c(=O)c3sc(Cl)cc3n12 [Allopole]
[1]
  Proliferation (in words): uninhibited proliferation

## O=c1c2sc(Cl)cc2n2c(=S)[nH]nc2n1CC1CC1 [Allopole-A]
Plk2 PBD (PBD2)
  PBD2 IC50 ± SD: N. S.
Plk1 PBD (PBD1); FP, bacterially expressed purified PBD, FITC-ligand 15 nM, PBD at EC85, read-out: PBD1 IC50 ± SD
  pIC50: 8.60
Plk1 PBD (PBD1); PBD1 WT at EC85
  Inhibition of FITC-phosphopeptide binding (in words): effectively inhibited PBD1 WT
PBD3 A612F mutant
  Inhibition in FP assay (in words): not inhibitable
PBD1 F559E mutant
  Inhibition of FITC-phosphopeptide binding (in words): failed to inhibit

— publication PMC10629583, “Specific inhibition of an anticancer target, polo-like kinase 1, by allosterically dismantling its mechanism of substrate recognition” (Proceedings of the National Academy of Sciences of the …, 2023)
